Active and inactive are the calls of the source. The rule behind the calls is not given here.
How the values were obtained:
[1] = molecular target: T1, Tyrosine-protein kinase ITK/TSK (Homo sapiens, UniProt Q08881); test: Inhibition of ITK by DELFIA assay
T1 sequence (Q08881 whole entry): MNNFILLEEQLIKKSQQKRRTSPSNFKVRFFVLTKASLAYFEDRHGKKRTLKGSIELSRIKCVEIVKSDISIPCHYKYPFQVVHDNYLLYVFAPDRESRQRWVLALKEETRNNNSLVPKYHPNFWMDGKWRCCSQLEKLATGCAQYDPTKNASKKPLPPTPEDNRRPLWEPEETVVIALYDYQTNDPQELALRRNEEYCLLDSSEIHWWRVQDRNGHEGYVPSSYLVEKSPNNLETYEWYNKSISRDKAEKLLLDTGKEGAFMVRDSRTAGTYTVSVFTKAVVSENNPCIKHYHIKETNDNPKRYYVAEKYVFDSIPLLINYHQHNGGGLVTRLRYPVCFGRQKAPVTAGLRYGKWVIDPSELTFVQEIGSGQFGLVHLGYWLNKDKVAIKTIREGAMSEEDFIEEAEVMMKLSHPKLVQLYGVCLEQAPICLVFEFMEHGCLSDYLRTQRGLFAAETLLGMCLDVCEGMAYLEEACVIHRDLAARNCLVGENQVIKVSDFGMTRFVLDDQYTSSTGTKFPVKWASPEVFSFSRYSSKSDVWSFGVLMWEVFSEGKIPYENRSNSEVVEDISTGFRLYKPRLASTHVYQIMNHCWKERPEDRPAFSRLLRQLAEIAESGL

[2] = molecular target: Tyrosine-protein kinase BTK (Homo sapiens) (UniProt Q06187); test: Inhibition of Btk
Tyrosine-protein kinase BTK (Homo sapiens), sequence (Q06187 whole entry): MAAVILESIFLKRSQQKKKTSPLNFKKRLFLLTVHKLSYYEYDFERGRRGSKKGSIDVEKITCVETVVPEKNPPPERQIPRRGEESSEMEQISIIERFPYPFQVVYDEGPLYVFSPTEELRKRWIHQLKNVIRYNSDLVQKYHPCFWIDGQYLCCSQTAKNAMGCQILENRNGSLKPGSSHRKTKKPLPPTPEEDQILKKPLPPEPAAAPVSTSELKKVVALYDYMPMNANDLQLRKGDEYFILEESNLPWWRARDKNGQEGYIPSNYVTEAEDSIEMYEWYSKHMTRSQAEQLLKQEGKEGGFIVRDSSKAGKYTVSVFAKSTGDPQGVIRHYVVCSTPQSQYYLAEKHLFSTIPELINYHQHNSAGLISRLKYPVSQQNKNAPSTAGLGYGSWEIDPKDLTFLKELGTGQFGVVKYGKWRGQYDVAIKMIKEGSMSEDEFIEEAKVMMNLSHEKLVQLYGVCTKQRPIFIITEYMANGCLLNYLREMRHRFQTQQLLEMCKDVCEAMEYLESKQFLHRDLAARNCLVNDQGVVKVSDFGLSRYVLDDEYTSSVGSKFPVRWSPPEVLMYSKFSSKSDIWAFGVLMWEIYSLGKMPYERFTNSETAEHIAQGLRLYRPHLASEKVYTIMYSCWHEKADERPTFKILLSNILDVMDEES

[3] = molecular target: Tyrosine-protein kinase Lyn (Homo sapiens) (UniProt P07948); test: Inhibition of Lyn kinase
Tyrosine-protein kinase Lyn (Homo sapiens), sequence (P07948 2-512 limits assumed): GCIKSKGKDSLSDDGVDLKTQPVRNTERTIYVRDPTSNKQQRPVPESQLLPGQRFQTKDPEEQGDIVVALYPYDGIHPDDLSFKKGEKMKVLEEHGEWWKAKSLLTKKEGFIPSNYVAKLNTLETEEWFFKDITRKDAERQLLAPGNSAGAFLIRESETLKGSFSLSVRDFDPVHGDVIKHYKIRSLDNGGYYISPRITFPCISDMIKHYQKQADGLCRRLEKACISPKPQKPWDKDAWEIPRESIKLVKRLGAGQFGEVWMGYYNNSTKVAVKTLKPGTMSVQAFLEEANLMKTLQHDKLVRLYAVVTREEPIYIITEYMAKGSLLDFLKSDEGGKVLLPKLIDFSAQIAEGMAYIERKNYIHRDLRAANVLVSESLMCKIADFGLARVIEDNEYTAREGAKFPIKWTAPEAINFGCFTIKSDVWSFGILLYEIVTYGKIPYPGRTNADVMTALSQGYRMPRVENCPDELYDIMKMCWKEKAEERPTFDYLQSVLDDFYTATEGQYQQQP

[4] = molecular target: Tyrosine-protein kinase SYK (Homo sapiens) (UniProt P43405); test: Inhibition of Syk
Insulin receptor = Insulin receptor (Homo sapiens, UniProt P06213); test: Inhibition of IRK
Insulin receptor, sequence (P06213 28-758 limits assumed): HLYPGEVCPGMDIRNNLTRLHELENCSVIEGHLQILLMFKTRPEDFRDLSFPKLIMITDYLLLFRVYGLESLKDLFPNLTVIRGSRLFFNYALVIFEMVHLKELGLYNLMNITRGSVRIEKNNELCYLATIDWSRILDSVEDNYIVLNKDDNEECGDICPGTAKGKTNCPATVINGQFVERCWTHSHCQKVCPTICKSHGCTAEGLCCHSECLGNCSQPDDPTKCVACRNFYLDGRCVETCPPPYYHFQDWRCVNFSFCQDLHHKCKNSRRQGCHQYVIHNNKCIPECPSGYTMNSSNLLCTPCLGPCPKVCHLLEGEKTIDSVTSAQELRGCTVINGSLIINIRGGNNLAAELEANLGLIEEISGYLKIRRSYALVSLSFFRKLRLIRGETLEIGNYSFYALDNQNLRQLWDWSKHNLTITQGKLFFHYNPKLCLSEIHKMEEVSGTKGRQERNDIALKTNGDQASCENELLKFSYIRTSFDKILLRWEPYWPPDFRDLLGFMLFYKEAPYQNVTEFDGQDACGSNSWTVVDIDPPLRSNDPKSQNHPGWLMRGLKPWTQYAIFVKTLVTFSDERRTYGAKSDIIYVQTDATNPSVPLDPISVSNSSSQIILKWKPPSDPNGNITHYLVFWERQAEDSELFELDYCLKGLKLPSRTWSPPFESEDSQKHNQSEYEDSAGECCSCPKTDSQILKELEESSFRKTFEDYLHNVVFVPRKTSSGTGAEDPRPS
Insulin receptor, sequence (P06213 763-1382 limits assumed): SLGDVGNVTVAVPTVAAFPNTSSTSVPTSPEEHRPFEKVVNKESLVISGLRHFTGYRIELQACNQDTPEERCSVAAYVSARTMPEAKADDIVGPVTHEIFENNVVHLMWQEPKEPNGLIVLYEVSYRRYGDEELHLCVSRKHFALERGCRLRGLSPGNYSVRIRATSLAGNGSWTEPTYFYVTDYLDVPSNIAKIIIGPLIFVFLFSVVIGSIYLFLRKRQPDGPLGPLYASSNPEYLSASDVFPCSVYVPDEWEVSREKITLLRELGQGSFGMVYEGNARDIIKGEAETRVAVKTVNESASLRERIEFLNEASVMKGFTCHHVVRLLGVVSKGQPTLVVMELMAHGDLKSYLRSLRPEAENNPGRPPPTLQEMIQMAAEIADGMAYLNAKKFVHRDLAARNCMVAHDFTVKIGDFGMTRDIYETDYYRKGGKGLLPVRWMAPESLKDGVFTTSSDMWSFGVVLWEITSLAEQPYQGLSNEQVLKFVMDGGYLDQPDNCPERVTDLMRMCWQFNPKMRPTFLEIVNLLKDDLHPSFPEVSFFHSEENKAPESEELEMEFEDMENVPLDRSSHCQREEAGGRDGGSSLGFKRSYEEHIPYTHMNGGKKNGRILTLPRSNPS

[5] = Inhibition of anti-CD3-induced IL2 secretion in mouse TH1 cells
Splenocyte = test: Inhibition of anti-CD3-induced IL2 secretion in mouse splenocytes
T-cell = test: Inhibition of anti-CD3/anti-CD28-induced IL2 secretion in human CD4+ T cells
Mus musculus = test: Inhibition of anti-CD3-induced IL2 production in sc dosed mouse; assay type: functional, organism-based
[6] = molecular target: T1, Tyrosine-protein kinase ITK/TSK; test: Inhibition of human ITK expressed in chicken DT40 cells assessed as B cell receptor-stimulated calcium influx by FLIPR assay; assay type: cell-based

CNC(=O)c1ccc(C(=O)Nc2nc3cc(N(C)C(=O)C4CCCCC4)ccc3n2CCC(N)=O)cc1
IC50 [1]: 1800 nM

CNC(=O)CCn1c(NC(=O)c2ccc(C#N)cc2)nc2cc(N(C)C(=O)C3CCCCC3)ccc21
IC50 [1]: 9 nM

COCCCn1c(NC(=O)c2ccc(C#N)cc2)nc2cc(N(C)C(=O)C3CCCCC3)ccc21
IC50 [1]: 16 nM

CN(C(=O)C1CCCCC1)c1ccc2c(c1)nc(NC(=O)c1ccc(C#N)cc1)n2CC(N)=O
IC50 [1]: 73 nM

CN(C(=O)C1CCCCC1)c1ccc2c(c1)nc(NC(=O)c1cccs1)n2CCC(N)=O
Activity [2]: inactive | Activity [3]: inactive | Activity [4]: inactive

Cc1ccc(C(=O)Nc2nc3cc(N(C)C(=O)C4CCCCC4)ccc3n2CCC(N)=O)cc1
IC50 (Insulin receptor): > 10000 nM

CC(C)n1c(NC(=O)c2ccc(C#N)cc2)nc2cc(N(C)C(=O)C3CCCCC3)ccc21
IC50 [1]: 35 nM

COc1cccc(C(=O)Nc2nc3cc(N(C)C(=O)C4CCCCC4)ccc3n2CCC(N)=O)c1
IC50 (Insulin receptor): 550 nM

CC(C(=O)C1CCCCC1)c1ccc2c(c1)nc(CC(=O)c1ccc(C#N)cc1)n2CCC(N)=O (stereo not drawn)
IC50 [1]: 3 nM

CN(C(=O)C1CCCCC1)c1ccc2c(c1)nc(CC(=O)c1ccc(Cl)cc1)n2CCc1ccccc1
IC50 [1]: > 20000 nM

CN(C(=O)C1CCCCC1)c1ccc2c(c1)nc(NC(=O)c1cccc(Br)c1)n2CCC(N)=O
IC50 [1]: 9 nM | IC50 (Insulin receptor): 95 nM

COc1ccc(C(=O)Nc2nc3cc(N(C)C(=O)C4CCCCC4)ccc3n2CCC(N)=O)cc1
IC50 (Insulin receptor): > 10000 nM

CN(C(=O)C1CCCCC1)c1ccc2c(c1)nc(N)n2CCC(N)=O
IC50 [1]: > 20000 nM

CC(=O)c1ccc(C(=O)Nc2nc3cc(N(C)C(=O)C4CCCCC4)ccc3n2CCC(N)=O)cc1
IC50 (Insulin receptor): > 10000 nM

CN(C(=O)C1CCCCC1)c1ccc2c(c1)nc(NC(=O)c1ccc(C#N)cc1)n2CCc1ccc(Cl)cc1Cl
IC50 [1]: 2000 nM

CCCCCCCn1c(NC(=O)c2ccc(C#N)cc2)nc2cc(N(C)C(=O)C3CCCCC3)ccc21
IC50 [1]: 4500 nM

CN(C(=O)C1CCCCC1)c1ccc2c(c1)nc(NC(=O)c1ccc(Cl)cc1)n2CCC(N)=O
IC50 [5]: 440 nM | IC50 (Splenocyte): 520 nM | IC50 (T-cell): 4100 nM

CN(C(=O)C1CCCCC1)c1ccc2c(c1)nc(NC(=O)c1ccc(Br)cc1)n2CCC(N)=O
IC50 [1]: 3 nM | IC50 (Insulin receptor): > 10000 nM

CN(C(=O)C1CCCCC1)c1ccc2c(c1)nc(NC(=O)c1cccc(C#N)c1)n2CCC(N)=O
IC50 (Insulin receptor): 125 nM

CC(=O)N1CCN(C(=O)c2cc(CSc3cnc(NC(=O)c4ccc(CNC(C)C(C)(C)C)cc4)s3)cc(C)c2C)CC1 (stereo not drawn)
Activity (Mus musculus): Dose-dependent effect

CC(C)C(=O)N(C)c1ccc2c(c1)nc(NC(=O)c1ccc(C#N)cc1)n2CCC(N)=O
IC50 [1]: 220 nM

CNc1ccc2c(c1)nc(NC(=O)c1ccc(C#N)cc1)n2CCC(N)=O
IC50 [1]: 76 nM

Cc1cccc(C(=O)Nc2nc3cc(N(C)C(=O)C4CCCCC4)ccc3n2CCC(N)=O)c1
IC50 (Insulin receptor): 550 nM

CN(C(=O)C1CCCCC1)c1ccc2c(c1)nc(NC(=O)c1ccc(C#N)cc1)n2CCCn1ccnc1
IC50 [1]: 4 nM | IC50 [6]: 510 nM | IC50 [5]: 350 nM | IC50 (T-cell): 650 nM
